Values of other authors, collected in patent US8758840B2, “Method of treating areas of osteoarthritis in animals and human beings with milkweed seed oil” (Natural Fibers Corporation, priority 2011, dated 2014).

System: pro-inflammatory and matrix degradation mediators involved in osteoarthritis-induced cartilage degradation
Conditions: laboratory tests, Gabay et al. 2010

## CC[C@H](/C=C/[C@@H](C)[C@H]1CC[C@H]2[C@@H]3CC=C4C[C@@H](O)CC[C@]4(C)[C@H]3CC[C@]12C)C(C)C [stigmasterol]
  effect on pro-inflammatory and matrix degradation mediators: inhibits several pro-inflammatory and matrix degradation mediators
